Experiments:
PARP 3 = biological target: T1, PARP 3 (Homo sapiens, UniProt Q9Y6F1); assay: In vitro IC50, PARP3; assay type: biochemical; conditions: SEM from a minimum of three dose-response experiments
T1 sequence (Q9Y6F1 1-533): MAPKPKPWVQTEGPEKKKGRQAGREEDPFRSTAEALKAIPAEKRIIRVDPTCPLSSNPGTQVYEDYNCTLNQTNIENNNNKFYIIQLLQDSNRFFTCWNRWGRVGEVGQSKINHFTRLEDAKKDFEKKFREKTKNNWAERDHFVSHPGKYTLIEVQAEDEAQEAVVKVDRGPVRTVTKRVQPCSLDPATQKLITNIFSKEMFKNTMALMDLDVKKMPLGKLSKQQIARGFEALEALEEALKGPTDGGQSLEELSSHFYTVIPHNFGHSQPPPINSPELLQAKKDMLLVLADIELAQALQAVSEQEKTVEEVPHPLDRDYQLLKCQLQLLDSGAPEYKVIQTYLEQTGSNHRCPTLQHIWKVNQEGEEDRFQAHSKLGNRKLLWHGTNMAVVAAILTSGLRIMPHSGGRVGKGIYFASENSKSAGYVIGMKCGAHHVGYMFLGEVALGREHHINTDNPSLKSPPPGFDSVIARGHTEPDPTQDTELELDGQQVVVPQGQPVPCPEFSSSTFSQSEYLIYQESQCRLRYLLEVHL

PARP5 bcat = biological target: T2, PARP5 bcat (Homo sapiens, UniProt Q9H2K2); assay: In vitro IC50, PARP5bcat; assay type: biochemical; conditions: SEM from a minimum of three dose-response experiments
T2 construct: bcat
T2 sequence (Q9H2K2 959-1164): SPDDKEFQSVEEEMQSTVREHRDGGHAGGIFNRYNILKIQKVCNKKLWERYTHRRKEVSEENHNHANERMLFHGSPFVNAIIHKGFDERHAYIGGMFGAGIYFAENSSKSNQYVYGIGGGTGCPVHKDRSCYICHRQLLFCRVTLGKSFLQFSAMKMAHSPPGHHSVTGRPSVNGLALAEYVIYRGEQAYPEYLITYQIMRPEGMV

PARP15 cat = biological target: T3, PARP15 cat (Homo sapiens, UniProt Q460N3); assay: In vitro IC50, PARP15 cat; assay type: biochemical; conditions: SEM from a minimum of three dose-response experiments
T3 construct: cat-wwe; cat
T3 sequence (Q460N3 482-678 limits assumed): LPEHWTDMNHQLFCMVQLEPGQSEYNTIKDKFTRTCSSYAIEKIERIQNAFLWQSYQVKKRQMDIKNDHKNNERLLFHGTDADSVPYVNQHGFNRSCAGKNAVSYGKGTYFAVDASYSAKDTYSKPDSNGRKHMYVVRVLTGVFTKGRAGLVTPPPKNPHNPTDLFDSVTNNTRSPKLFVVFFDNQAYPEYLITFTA

PARP14 cat-wwe = biological target: T4, PARP14 cat-wwe (Homo sapiens, UniProt Q460N5); assay: In vitro IC50, PARP14 cat-wwe; assay type: biochemical; conditions: SEM from a minimum of three dose-response experiments
T4 construct: PARP14 cat-wwe; no borders given for the assay protein
T4 sequence (Q460N5 1523-1801 limits assumed): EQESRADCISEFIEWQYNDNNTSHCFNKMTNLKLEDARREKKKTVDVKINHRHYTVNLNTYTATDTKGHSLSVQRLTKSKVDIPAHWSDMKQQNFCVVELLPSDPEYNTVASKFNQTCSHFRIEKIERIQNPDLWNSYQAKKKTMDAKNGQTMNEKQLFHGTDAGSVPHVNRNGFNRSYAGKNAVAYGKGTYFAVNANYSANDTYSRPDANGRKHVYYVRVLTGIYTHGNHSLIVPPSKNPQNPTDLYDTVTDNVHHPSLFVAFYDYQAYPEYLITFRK

PARP10cat = biological target: T5, PARP10cat (Homo sapiens, UniProt Q53GL7); assay: In vitro IC50, PARP10cat; assay type: biochemical; conditions: SEM from a minimum of three dose-response experiments
T5 construct: bcat; cat; PARP11
T5 sequence (Q53GL7 806-1025 limits assumed): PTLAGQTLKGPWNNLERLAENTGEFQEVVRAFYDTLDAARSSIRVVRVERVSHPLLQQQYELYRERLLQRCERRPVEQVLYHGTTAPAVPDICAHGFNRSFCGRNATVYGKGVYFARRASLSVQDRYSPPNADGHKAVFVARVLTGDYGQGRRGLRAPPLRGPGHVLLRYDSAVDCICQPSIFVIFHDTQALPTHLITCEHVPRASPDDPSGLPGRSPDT

PARP 1 = PARP 1 (Homo sapiens, UniProt P09874); assay: In vitro IC50, PARP1; assay type: biochemical; conditions: SEM from a minimum of three dose-response experiments
Sequence of PARP 1 (P09874 whole entry): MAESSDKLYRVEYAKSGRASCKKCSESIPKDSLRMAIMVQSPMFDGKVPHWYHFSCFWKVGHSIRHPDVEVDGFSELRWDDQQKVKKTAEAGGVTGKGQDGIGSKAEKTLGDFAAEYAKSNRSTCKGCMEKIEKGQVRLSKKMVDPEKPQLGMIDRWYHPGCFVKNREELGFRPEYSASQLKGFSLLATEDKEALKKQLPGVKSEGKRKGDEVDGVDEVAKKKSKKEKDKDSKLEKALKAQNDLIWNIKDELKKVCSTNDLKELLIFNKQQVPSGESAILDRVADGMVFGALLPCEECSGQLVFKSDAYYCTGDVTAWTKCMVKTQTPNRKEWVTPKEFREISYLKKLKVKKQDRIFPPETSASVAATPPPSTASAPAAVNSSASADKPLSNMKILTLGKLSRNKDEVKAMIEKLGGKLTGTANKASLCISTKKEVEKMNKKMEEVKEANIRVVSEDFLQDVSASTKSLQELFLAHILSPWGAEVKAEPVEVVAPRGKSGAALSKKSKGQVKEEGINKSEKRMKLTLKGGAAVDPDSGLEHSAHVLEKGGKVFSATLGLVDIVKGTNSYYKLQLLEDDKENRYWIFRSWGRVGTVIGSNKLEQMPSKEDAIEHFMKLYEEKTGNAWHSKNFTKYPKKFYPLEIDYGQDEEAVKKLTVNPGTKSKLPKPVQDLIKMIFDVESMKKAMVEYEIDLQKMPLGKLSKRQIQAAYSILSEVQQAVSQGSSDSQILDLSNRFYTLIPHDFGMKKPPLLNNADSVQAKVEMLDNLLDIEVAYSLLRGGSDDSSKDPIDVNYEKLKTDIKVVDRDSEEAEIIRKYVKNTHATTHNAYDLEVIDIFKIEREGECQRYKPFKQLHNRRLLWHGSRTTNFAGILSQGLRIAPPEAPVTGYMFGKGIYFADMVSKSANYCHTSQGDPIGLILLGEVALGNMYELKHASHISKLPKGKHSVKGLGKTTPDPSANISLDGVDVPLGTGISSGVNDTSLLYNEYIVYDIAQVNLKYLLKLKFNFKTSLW

PARP11 = biological target: T6, PARP11 (Homo sapiens, UniProt Q9NR21); assay: In vitro IC50, PARP11 (plate assay, MARylation of SRPK2 and NXF1); assay type: biochemical; conditions: SEM from a minimum of three dose-response experiments
T6 sequence (Q9NR21 1-338): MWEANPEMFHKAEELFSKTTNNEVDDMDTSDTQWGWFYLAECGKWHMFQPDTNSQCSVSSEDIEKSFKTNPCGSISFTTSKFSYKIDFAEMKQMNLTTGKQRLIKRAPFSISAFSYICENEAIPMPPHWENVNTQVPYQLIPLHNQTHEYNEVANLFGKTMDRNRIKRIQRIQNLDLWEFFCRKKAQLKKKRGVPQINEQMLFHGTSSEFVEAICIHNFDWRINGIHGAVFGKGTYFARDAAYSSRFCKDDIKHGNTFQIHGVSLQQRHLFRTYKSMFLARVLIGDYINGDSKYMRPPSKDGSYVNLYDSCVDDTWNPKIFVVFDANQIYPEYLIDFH
Text: Curves generated using Prism 7 (Graph Pad); error bars indicate ±SEM from at least two replicates.

PARP 2 = PARP 2 (Homo sapiens, UniProt Q9UGN5); assay: In vitro IC50, PARP2; assay type: biochemical; conditions: SEM from a minimum of three dose-response experiments
Sequence of PARP 2 (Q9UGN5 whole entry): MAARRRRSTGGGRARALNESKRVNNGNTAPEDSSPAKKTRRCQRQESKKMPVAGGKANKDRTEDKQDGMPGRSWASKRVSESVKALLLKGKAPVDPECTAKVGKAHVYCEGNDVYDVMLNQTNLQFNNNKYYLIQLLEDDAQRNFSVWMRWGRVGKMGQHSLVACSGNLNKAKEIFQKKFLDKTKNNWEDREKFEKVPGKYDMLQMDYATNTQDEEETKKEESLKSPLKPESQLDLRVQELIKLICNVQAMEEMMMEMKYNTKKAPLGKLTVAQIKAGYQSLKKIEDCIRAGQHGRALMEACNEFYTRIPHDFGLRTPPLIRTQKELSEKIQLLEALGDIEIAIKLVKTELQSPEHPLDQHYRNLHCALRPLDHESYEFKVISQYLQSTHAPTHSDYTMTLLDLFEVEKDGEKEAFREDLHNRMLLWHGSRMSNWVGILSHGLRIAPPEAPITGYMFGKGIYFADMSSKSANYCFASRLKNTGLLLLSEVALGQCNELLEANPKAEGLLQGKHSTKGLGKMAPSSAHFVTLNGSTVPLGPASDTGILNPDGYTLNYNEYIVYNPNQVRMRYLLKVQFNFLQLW

PARP1/2 = biological target: T7, PARP1/2 (Homo sapiens, UniProt P09874); assay: H2O2-stimulated PARP1/2 activity in HEK 293T cells (Western blot); assay type: cell-based; conditions: H2O2 500 μM for 15 min, Western blot with ADPr binding reagent
T7 construct: expressed in transfected cells; host or cells: HEK 293T
T7 sequence (P09874 2-1014): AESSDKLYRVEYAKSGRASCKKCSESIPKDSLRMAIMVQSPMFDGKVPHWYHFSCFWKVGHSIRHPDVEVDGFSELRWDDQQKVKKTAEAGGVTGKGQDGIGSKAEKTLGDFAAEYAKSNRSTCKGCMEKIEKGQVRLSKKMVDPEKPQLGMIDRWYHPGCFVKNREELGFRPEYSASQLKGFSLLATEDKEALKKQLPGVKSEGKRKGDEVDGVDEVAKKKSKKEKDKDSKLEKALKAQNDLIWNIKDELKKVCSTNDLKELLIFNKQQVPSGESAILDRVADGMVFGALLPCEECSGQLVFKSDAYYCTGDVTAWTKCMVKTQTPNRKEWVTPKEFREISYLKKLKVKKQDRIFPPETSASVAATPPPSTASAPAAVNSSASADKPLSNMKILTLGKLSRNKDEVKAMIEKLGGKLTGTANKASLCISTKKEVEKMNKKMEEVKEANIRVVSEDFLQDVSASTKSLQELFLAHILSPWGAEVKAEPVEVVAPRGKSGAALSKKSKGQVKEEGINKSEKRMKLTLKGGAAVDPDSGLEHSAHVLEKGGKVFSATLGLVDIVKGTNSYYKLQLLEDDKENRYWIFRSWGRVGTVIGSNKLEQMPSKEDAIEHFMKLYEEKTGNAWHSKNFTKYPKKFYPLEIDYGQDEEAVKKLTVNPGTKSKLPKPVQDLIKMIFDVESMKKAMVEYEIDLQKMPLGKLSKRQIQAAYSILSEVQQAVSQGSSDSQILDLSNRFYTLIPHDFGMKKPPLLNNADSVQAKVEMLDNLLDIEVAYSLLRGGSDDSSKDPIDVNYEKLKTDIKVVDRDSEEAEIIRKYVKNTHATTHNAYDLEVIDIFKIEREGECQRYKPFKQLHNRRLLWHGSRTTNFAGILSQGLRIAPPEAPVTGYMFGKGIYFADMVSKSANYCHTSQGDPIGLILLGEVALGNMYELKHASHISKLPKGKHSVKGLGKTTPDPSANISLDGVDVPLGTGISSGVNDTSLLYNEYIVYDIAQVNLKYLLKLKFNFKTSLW
Description: Lysates were prepared and PAR/MARylation was analyzed by Western blot with an ADP-ribose (ADPr) binding reagent. Blot was also probed with antibodies for GFP and actin. The band of interest represents auto-PARylated GFP-PARP1. […] Lysates were prepared and PAR/MARylation was analyzed by Western blot with an ADP-ribose (ADPr) binding reagent. Blot was also probed with antibodies for GFP and actin.
Lysates were prepared and PAR/MARylation was analyzed by Western blot with an ADP-ribose (ADPr) binding reagent. Blot was also probed with antibodies for GFP and actin. The band of interest represents auto-PARylated GFP-PARP1.

| Structure (SMILES) | IC50 (PARP 3) | IC50 (PARP5 bcat) | IC50 (PARP15 cat) | IC50 (PARP14 cat-wwe) | IC50 (PARP10cat) | IC50 (PARP 1) | IC50 (PARP11) | IC50 (PARP 2) | Inhibition of H2O2-mediated PARP1 PARylation (PARP½ activity) in cells (PARP1/2) |
| --- | --- | --- | --- | --- | --- | --- | --- | --- | --- |
| C#Cc1ccc2c(=O)[nH]c(CSc3ccc(C(=O)O)cc3)nc2c1C [ITK5, 4-(((7-ethynyl-8-methyl-4-oxo-3,4-dihydroquinazolin-2-yl)methyl)thio)benzoic acid] | > 30 µM | > 10 µM | 4.03 ± 0.77 µM | 10.8 ± 0.75 µM | 5.4 ± 0.17 µM | > 30 µM | 1.62 ± 0.33 µM | > 30 µM |  |
| CNCc1ccc(-c2[nH]c3cc(F)cc4c3c2CCNC4=O)cc1 [Rucaparib, reference compound] |  |  |  |  |  |  | 3.4 ± 0.5 µM |  |  |
| C[C@]1(c2nc3c(C(N)=O)cccc3[nH]2)CCCN1 [veliparib, reference compound] |  |  |  |  |  |  |  |  | completely inhibits |
| Cc1ccc2c(=O)[nH]c(CSc3nnc(N)[nH]3)nc2c1C [ITK3, 2-(((5-amino-4H-1,2,4-triazol-3-yl)thio)methyl)-7,8-dimethylquinazolin-4(3H)-one] | > 30 µM | > 10 µM | > 30 µM | 6.73 ± 1.8 µM | 27.9 ± 3.9 µM | > 30 µM | 13.6 ± 1.4 µM | > 30 µM |  |
| Cc1ccc2c(=O)[nH]c(CSc3ccc(C(=O)O)cc3)nc2c1C [ITK4, 4-(((7,8-dimethyl-4-oxo-3,4-dihydroquinazolin-2-yl)methyl)thio)benzoic acid] | > 30 µM | > 10 µM | 6.85 ± 0.99 µM | 8.71 ± 0.8 µM | 9.29 ± 0.2 µM | > 30 µM | 5.5 ± 0.8 µM | 8.46 ± 1.4 µM |  |
| Cc1ccc2c(=O)[nH]c(CSc3ncccn3)nc2c1C [ITK1, 7,8-dimethyl-2-((pyrimidin-2-ylthio)methyl)quinazolin-4(3H)-one] | > 30 µM | > 10 µM | > 30 µM | 8.55 ± 0.8 µM | 19.7 ± 0.95 µM | > 30 µM | 0.55 ± 0.11 µM | 17.4 ± 3.3 µM |  |
| Cc1ccc2c(=O)[nH]c(CSc3ncnc4nc[nH]c34)nc2c1C [ITK2, 2-(((7H-purin-6-yl)thio)methyl)-7,8-dimethylquinazolin-4(3H)-one] | > 30 µM | > 10 µM | > 30 µM | 7.87 ± 0.2 µM | 32.8 ± 3.6 µM | > 30 µM | 4.52 ± 1.4 µM | > 30 µM |  |

Source: patent US12404250B2, “PARP inhibitors for treating cancer and asthma” (Oregon Health & Science University, priority 2018, dated 2025)
